Source: patent publication EP0915894B1, “NUCLEOTIDE ANALOGS” (GILEAD SCIENCES, INC., priority 1996, dated 1998)

What was measured:
HIV-1(IIIB) = assay: Antiviral activity against HIV-1(IIIB) in MT-2 cells (tissue culture); format: cell-based; settings: for SI - Selectivity Index(CC50/IC50): CC50/IC50, HIV-1, MT-2 cells; for IC50: Human immunodeficiency virus 1, MT2, HIV-1(IIIB), MT-2 cells, read-out: IC50 (50% inhibitory concentration)
Source text: (§1) PMPA (9-[(R)-2-(phosphonomethoxy)propyl]adenine) and PMPA carbonates were examined to determine their activity against HIV-1.

MT-2 cells = assay: Cytotoxicity in MT-2 cells (concentration to kill 50% of the cells); format: cell-based
Source text: as §1

[1] = Chemical (solution) stability of PMPA carbonates; format: physicochemical; settings: compared with preferred t 1/2 at pH 7.4 (> 2-12 hours) and at pH 2.0 (> 1, 10 or 100 hours)
Experimental: The solution stability of PMPA carbonates was studied at pH 7.4 at 37°C in 10 mM buffer (NaH2PO4 and Na2HPO4) with the total ionic strength adjusted to 0.15 M with KCl. The assays were performed by adding 200 µL of a PMPA carbonate stock solution (about 1 mg/mL in DMSO) to 10 mL of pre-equilibrated buffer at 37°C. Samples were removed at specific times points and analyzed by HPLC. The chemical t 1/2 is expressed in terms of the number of hours required to hydrolyze 50% of the carbonate at the specified pH.

[2] = Cytotoxicity in MT-2 cells (concentration to kill 50% of the cells); format: cell-based; settings: human
Source text: as §1

Source text for physchem: as §1

Row | SMILES | SI - Selectivity Index(CC50/IC50) (HIV-1(IIIB)) | IC50 (HIV-1(IIIB)) [nM] | CC50 (MT-2 cells) [nM] | increased potency / activity compared to PMPA (HIV-1(IIIB); anti-HIV-1 activity relative to PMPA) [fold] | t 1/2 (chemical stability) [1] | CC50 [2] [nM] | logP (physchem)
1 | CCOC(=O)OCOP(=O)(CO[C@H](C)Cn1cnc2c(N)ncnc21)OCOC(=O)OCC [5a] | 20000 | 2 | 40000 | – | – | – | –
2 | CC(C)COC(=O)OCOP(=O)(CO[C@H](C)Cn1cnc2c(N)ncnc21)OCOC(=O)OCC(C)C [5c] | 30000 | < 1 | 30000 | – | – | – | –
3 | C[C@H](Cn1cnc2c(N)ncnc21)OCP(=O)(OCOC(=O)OC(C)(C)C)OCOC(=O)OC(C)(C)C [5d] | 50 | 200 | 10000 | 2.5 | less stable than these parameters | – | –
4 | C[C@H](Cn1cnc2c(N)ncnc21)OCP(=O)(OCOC(=O)OCC(C)(C)C)OCOC(=O)OCC(C)(C)C [5e] | 3000 | < 1 | 3000 | – | – | – | –
5 | CC(C)OC(=O)OCOP(=O)(CO[C@H](C)Cn1cnc2c(N)ncnc21)OCOC(=O)OC(C)C [5f] | 16600 | 3 | 50000 | – | – | – | –
6 | CCC(CC)OC(=O)OCOP(=O)(CO[C@H](C)Cn1cnc2c(N)ncnc21)OCOC(=O)OC(CC)CC [5g] | 40000 | < 1 | 40000 | – | – | – | –
7 | C[C@H](Cn1cnc2c(N)ncnc21)OCP(=O)(O)O [compound 2, 9-[(R)-2-(phosphonomethoxy)propyl]adenine, reference compound] | 500 | 500 | – | – | – | 250000 | -2.5
